Test results published in ChEMBL document CHEMBL1201862, “PubChem BioAssay data set” (2004).
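Following 48 hours of exposure in 96-well plates, responses at five concentrations were used to interpolate endpoints linearly. The concentration for 50% growth inhibition is given as GI50.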 Calls of active or inactive are those of the source. Rule as the data show it: active = GI50 up to about 1.1 µM and inactive = higher.

Assays:
Test in all cases: NCI tumour cell line growth inhibition, 48 h
786-0 = tested on: 786-0
CAKI-1 = tested on: CAKI-1
HCT-15 = tested on: HCT-15
HL-60 = tested on: HL-60
K562 = tested on: K562
Malme-3M = tested on: Malme-3M
OVCAR-4 = tested on: OVCAR-4
SF-295 = tested on: SF-295
SF-539 = tested on: SF-539
SK-MEL-5 = tested on: SK-MEL-5
SN12C = tested on: SN12C
TK-10 = tested on: TK-10
U-251 = tested on: U-251
NCI-H522 = tested on: NCI-H522

With N#CC1=C(N)Oc2c(ccc3cccnc23)C1c1ccccc1 (stereo not drawn) the GI50 (786-0) was 6 µM (inactive), the GI50 (CAKI-1) was 0.619 µM (active) and the GI50 (HCT-15) was 0.443 µM. The GI50 (HL-60) was 0.267 µM (active), the GI50 (K562) was 0.396 µM (active) and the GI50 (Malme-3M) was 15.2 µM (inactive). For the same compound, the GI50 (OVCAR-4) was 17.2 µM (inactive), the GI50 (SF-295) was 0.515 µM (active) and the GI50 (SF-539) was 1.25 µM (inactive). For the same compound, the GI50 (SK-MEL-5) was 0.811 µM (active), the GI50 (SN12C) was 3.3 µM (inactive) and the GI50 (TK-10) was 3.9 µM (inactive). For the same compound, the GI50 (U-251) was 0.908 µM (active).
CN(C)c1ccc(/C=C2\C=Cc3ccccc32)cc1 was tested, and the GI50 (786-0) was 61 µM (inactive), the GI50 (CAKI-1) was 78 µM (inactive) and the GI50 (HCT-15) was 34.6 µM. The GI50 (HL-60) was 27.9 µM (inactive), the GI50 (K562) was 28.8 µM (inactive) and the GI50 (Malme-3M) was > 100 µM (inactive). The GI50 (NCI-H522) was 17.3 µM (inactive), the GI50 (OVCAR-4) was 50.5 µM (inactive) and the GI50 (SF-295) was 34.3 µM (inactive). For the same compound, the GI50 (SF-539) was 50.7 µM (inactive), the GI50 (SK-MEL-5) was 36.3 µM (inactive) and the GI50 (SN12C) was 39.9 µM (inactive). For the same compound, the GI50 (TK-10) was > 100 µM (inactive) and the GI50 (U-251) was 55 µM (inactive).
In the case of COC(=O)c1ccc(C(=O)OC)c2nc3cc(Cl)ccc3nc12, the GI50 (786-0) is reported as > 100 µM (inactive), the GI50 (CAKI-1) is reported as > 100 µM (inactive) and the GI50 (HCT-15) is reported as > 100 µM. For the same compound, the GI50 (HL-60) was > 100 µM (inactive), the GI50 (K562) was > 100 µM (inactive) and the GI50 (Malme-3M) was > 100 µM (inactive). The GI50 (NCI-H522) was > 100 µM (inactive), the GI50 (OVCAR-4) was > 100 µM (inactive) and the GI50 (SF-295) was > 100 µM (inactive). For the same compound, the GI50 (SF-539) was > 100 µM (inactive), the GI50 (SK-MEL-5) was > 100 µM (inactive) and the GI50 (SN12C) was > 100 µM (inactive). For the same compound, the GI50 (TK-10) was > 100 µM (inactive) and the GI50 (U-251) was > 100 µM (inactive).
With CNS(=O)(=O)NNS(=O)(=O)c1cccc([N+](=O)[O-])c1 the GI50 (786-0) was > 100 µM (inactive), the GI50 (CAKI-1) was > 100 µM (inactive) and the GI50 (HCT-15) was > 100 µM. For the same compound, the GI50 (K562) was > 100 µM (inactive), the GI50 (Malme-3M) was > 100 µM (inactive) and the GI50 (NCI-H522) was > 100 µM (inactive). The GI50 (OVCAR-4) was > 100 µM (inactive), the GI50 (SF-295) was > 100 µM (inactive) and the GI50 (SF-539) was > 100 µM (inactive). For the same compound, the GI50 (SK-MEL-5) was > 100 µM (inactive), the GI50 (SN12C) was > 100 µM (inactive) and the GI50 (TK-10) was > 100 µM (inactive). For the same compound, the GI50 (U-251) was > 100 µM (inactive).
CN(C)CCSc1nccc(-c2cc3ccccc3s2)n1 was tested, and the GI50 (786-0) was 24.2 µM (inactive), the GI50 (CAKI-1) was 25.8 µM (inactive) and the GI50 (HCT-15) was 18.6 µM. The GI50 (Malme-3M) was 19.5 µM (inactive), the GI50 (NCI-H522) was 20.1 µM (inactive) and the GI50 (OVCAR-4) was 38.5 µM (inactive). The GI50 (SF-295) was 16.2 µM (inactive), the GI50 (SF-539) was 18.2 µM (inactive) and the GI50 (SK-MEL-5) was 14.3 µM (inactive). For the same compound, the GI50 (SN12C) was 30.4 µM (inactive), the GI50 (TK-10) was > 10 µM (inactive) and the GI50 (U-251) was 20.2 µM (inactive).
In the case of CCOC(=O)C1=C(C)N(NC(=O)Nc2ccccc2)C2(N)N(NC(=O)Nc3ccccc3)C(C)=C(C(=O)OCC)C12C#N (stereo not drawn), the GI50 (786-0) is reported as 18 µM (inactive), the GI50 (CAKI-1) is reported as 19.2 µM (inactive) and the GI50 (HCT-15) is reported as 19.4 µM. The GI50 (K562) was 20 µM (inactive), the GI50 (Malme-3M) was 15.5 µM (inactive) and the GI50 (NCI-H522) was 18.9 µM (inactive). The GI50 (OVCAR-4) was 17.4 µM (inactive), the GI50 (SN12C) was 17.6 µM (inactive) and the GI50 (TK-10) was 25.2 µM (inactive). The GI50 (U-251) was 18.4 µM (inactive).
In the case of Cc1nc(O)nc(CC(O)(c2ccccc2)c2ccccc2)c1-c1ccccc1, the GI50 (786-0) is reported as > 100 µM (inactive), the GI50 (CAKI-1) is reported as > 100 µM (inactive) and the GI50 (HCT-15) is reported as > 100 µM. For the same compound, the GI50 (HL-60) was > 100 µM (inactive), the GI50 (K562) was > 100 µM (inactive) and the GI50 (Malme-3M) was > 100 µM (inactive). The GI50 (NCI-H522) was 58.5 µM (inactive), the GI50 (OVCAR-4) was > 100 µM (inactive) and the GI50 (SF-295) was > 100 µM (inactive). For the same compound, the GI50 (SF-539) was > 100 µM (inactive), the GI50 (SK-MEL-5) was > 100 µM (inactive) and the GI50 (SN12C) was > 100 µM (inactive). The GI50 (TK-10) was > 100 µM (inactive) and the GI50 (U-251) was > 100 µM (inactive).
For Cc1nc(Nc2ccccc2)sc1C(=O)CC(=O)C(=O)NC12CC3CC(CC(C3)C1)C2, the GI50 (786-0) was > 100 µM (inactive), the GI50 (CAKI-1) was 65.2 µM (inactive) and the GI50 (HCT-15) was > 100 µM. The GI50 (HL-60) was 92.3 µM (inactive), the GI50 (K562) was > 100 µM (inactive) and the GI50 (Malme-3M) was > 100 µM (inactive). For the same compound, the GI50 (NCI-H522) was 79.6 µM (inactive), the GI50 (OVCAR-4) was > 100 µM (inactive) and the GI50 (SF-295) was 71.3 µM (inactive). The GI50 (SF-539) was > 100 µM (inactive), the GI50 (SK-MEL-5) was 74.5 µM (inactive) and the GI50 (SN12C) was > 100 µM (inactive). The GI50 (TK-10) was > 100 µM (inactive) and the GI50 (U-251) was > 100 µM (inactive).
In the case of Cn1c2cc([N+](=O)[O-])ccc2c(=O)c2c(O)cc3c(c21)C=CC(C)(C)O3, the GI50 (786-0) is reported as 44.3 µM (inactive), the GI50 (CAKI-1) is reported as 60.5 µM (inactive) and the GI50 (HCT-15) is reported as > 100 µM. The GI50 (HL-60) was > 100 µM (inactive), the GI50 (K562) was > 100 µM (inactive) and the GI50 (Malme-3M) was > 100 µM (inactive). For the same compound, the GI50 (NCI-H522) was 46.5 µM (inactive), the GI50 (OVCAR-4) was > 100 µM (inactive) and the GI50 (SF-295) was 16.9 µM (inactive). For the same compound, the GI50 (SF-539) was 14.8 µM (inactive), the GI50 (SK-MEL-5) was > 100 µM (inactive) and the GI50 (SN12C) was > 100 µM (inactive). For the same compound, the GI50 (TK-10) was 37.1 µM (inactive) and the GI50 (U-251) was > 100 µM (inactive).
In the case of CCCC/C=C1\CCC(CN2CCCC2)C1=O (stereo not drawn), the GI50 (786-0) is reported as 1.83 µM (inactive), the GI50 (CAKI-1) is reported as > 10 µM (inactive) and the GI50 (HCT-15) is reported as 3.13 µM. For the same compound, the GI50 (HL-60) was 8.61 µM (inactive), the GI50 (K562) was 2.71 µM (inactive) and the GI50 (Malme-3M) was 17.8 µM (inactive). The GI50 (SF-295) was 18.1 µM (inactive), the GI50 (SF-539) was 16.1 µM (inactive) and the GI50 (SK-MEL-5) was 17.3 µM (inactive). The GI50 (SN12C) was 17.9 µM (inactive), the GI50 (TK-10) was 2.59 µM (inactive) and the GI50 (U-251) was 6.75 µM (inactive).
Cc1ccc(/C=C/C(=O)c2sc(-c3cccnc3)nc2C)cc1 was tested, and the GI50 (786-0) was > 100 µM (inactive), the GI50 (CAKI-1) was > 100 µM (inactive) and the GI50 (HCT-15) was > 100 µM. For the same compound, the GI50 (HL-60) was > 100 µM (inactive), the GI50 (K562) was > 100 µM (inactive) and the GI50 (Malme-3M) was > 100 µM (inactive). The GI50 (NCI-H522) was > 100 µM (inactive), the GI50 (SF-295) was > 100 µM (inactive) and the GI50 (SF-539) was > 100 µM (inactive). The GI50 (SK-MEL-5) was > 100 µM (inactive), the GI50 (SN12C) was > 100 µM (inactive) and the GI50 (TK-10) was > 100 µM (inactive). The GI50 (U-251) was > 100 µM (inactive).
